Measured values taken from patent publication US6468995B1, “Cephem compounds” (Fujisawa Pharmaceutical Co., Ltd., priority 1993, dated 2002).

Experiment: Stability test of the crystal
Assay type: physicochemical
Settings: crystal containing 1/3 isopropanol

Question: Which “stability in the stability test” value does the source give for Nc1nc(/C(=N/O)C(=O)N[C@@H]2C(=O)N3C(C(=O)O)=C(SCc4cn[nH]c4)CS[C@H]23)cs1 [Example 37, 7β-[2-(2-aminothiazol-4-yl)-2-(Z)-(hydroxyimino)acetamido]-3-[(pyrazol-4-yl)methylthio]-3-cephem-4-carboxylic acid containing 1/3 isopropanol] here?
Answer: stable
